Tested on: patients with ALS
Assay: BENEFIT-ALS clinical trial: treatment-emergent adverse events, discontinuations, deaths
Assay type: in vivo, human
Description: BENEFIT-ALS was a multi-national, randomized, stratified, double-blind, placebo-controlled, parallel-group study of tirasemtiv in patients with ALS. The study consisted of a screening period, an open-label/lead-in period, and a double-blind treatment period. Following screening, eligible patients received open-label tirasemtiv, 125 mg BID, for 7 days. Patients who tolerated the 7-day lead-in period were randomized in a 1:1 ratio to tirasemtiv or placebo. Over the first 3 weeks of double-blind treatment, patients randomized to tirasemtiv had their TDD up-titrated as follows: 250 mg for 7 days, then 375 mg for 7 days, then 500 mg for 7 days. […] However, in such cases, dose escalation was re-attempted at least one additional time. The highest tolerable tirasemtiv dose for each individual patient was the dose that patient received for the remaining 9 weeks (i.e., the maximum tolerated dose [MTD] phase) of the study. Patients randomized to placebo underwent a corresponding dummy dose titration.
A total of 711 patients were enrolled in the study and began treatment with open-label tirasemtiv 125 mg BID. After the one-week open-label phase, 302 patients were randomized to placebo and 303 to tirasemtiv. Of these randomized patients, 269 in the placebo group and 204 in the tirasemtiv group completed the study, while 33 on placebo and 99 on tirasemtiv prematurely discontinued study drug, primarily due to AEs (12 patients on placebo 78 patients on tirasemtiv) and patient withdrawal of consent (7 placebo, 12 tirasemtiv).
Safety data presented were based on the safety analysis set, defined as all patients who received at least 1 dose of double-blind study drug. Of the 605 randomized patients, 596 (295 placebo, 301 tirasemtiv) received at least 1 dose of double-blind study drug and were included in the safety analysis set. Data for the primary and secondary efficacy endpoints were analyzed with the Modified FAS. This analysis set included all patients who received at least 1 dose of double-blind study drug and had at least 1 efficacy assessment during the double-blind treatment period, and excluded 156 patients who were randomized in blocks containing patients affected by a study drug assignment error in which 58 patients randomized to and treated with double-blind tirasemtiv were dispensed double-blind placebo instead. Based on these criteria, the Modified FAS consisted of 388 patients (210 placebo, 178 tirasemtiv).
An overview of treatment-emergent AEs during the double-blind phase of the study is provided in Table 4, and commonly reported AEs during the double-blind phase are summarized in Table 5. Serious AEs during the double-blind phase of the study were reported for 16 patients (5.4%) in the placebo group and 27 patients (9.0%) in the tirasemtiv group. By the Medical Dictionary for Regulatory […] (MedDRA) system organ class, the most commonly reported SAEs involved respiratory, thoracic and mediastinal disorders (2.0% placebo, 1.3% tirasemtiv). By MedDRA preferred term, AEs that were reported for more than 1 patient included the following: dysphagia (0.3% placebo, 0.7% tirasemtiv), pneumonia (0.3% placebo, 0.7% tirasemtiv), confusional state (0% placebo, 0.7% tirasemtiv), delirium (0% placebo, 0.7% tirasemtiv), and respiratory failure (1.0% placebo, […]).

[1] = double-blind phase, N=301, MedDRA preferred term
[2] = double-blind phase, N=301, NCI CTCAE
[3] = double-blind phase, N=301, listed as tirasemtiv
[4] = double-blind phase, reported for more than 1 patient

Structure (SMILES): C#Cc1cnc2nc(O)n(C(CC)CC)c2n1 [Tirasemtiv, 6-ethynyl-1-(pentan-3-yl)-1H-imidazo[4,5-b]pyrazin-2(3H)one]
- Patients who terminated treatment during the first 4 weeks of the double-blind phase (71/97 of early terminations): 73.2%
- Confusional state leading to early discontinuation (double-blind phase): 5.0%
- Dizziness leading to early discontinuation (double-blind phase): 9.3%
- Fatigue leading to early discontinuation (double-blind phase): 5.0%
- Gastrointestinal (GI) AEs, % of patients (double-blind phase): 43.5%
- Gastrointestinal (GI) AEs, No. of patients (double-blind phase): 131
- SAEs: respiratory, thoracic and mediastinal disorders (MedDRA system organ class) (double-blind phase): 1.3%
- % of patients with AE leading to early termination (double-blind phase, N=301): (25.9%)
- % of patients with SAE (double-blind phase, N=301): (9.0%)
- Deaths, % of patients (double-blind phase, N=301): (0.7%)
- Deaths, No. of patients (double-blind phase, N=301): 2
- No. of patients with AE leading to early termination (double-blind phase, N=301): 78
- No. of patients with SAE (double-blind phase, N=301): 27
- AE Asthenia [1]: 15.9%
- AE Confusional state [1]: 11.0%
- AE Constipation [1]: 6.3%
- AE Contusion [1]: 7.3%
- AE Decreased appetite [1]: 10.0%
- AE Diarrhea [1]: 7.3%
- AE Dizziness [1]: 50.8%
- AE Fatigue [1]: 33.2%
- AE Headache [1]: 17.9%
- AE Insomnia [1]: 10.3%
- AE Muscle spasms [1]: 15.0%
- AE Muscular weakness [1]: 11.3%
- AE Nasopharyngitis [1]: 6.3%
- AE Nausea [1]: 21.9%
- AE Respiratory failure [1]: 6.3%
- AE Somnolence [1]: 13.0%
- % of patients with Grade 3 AE [2]: (20.3%)
- % of patients with Grade 4 AE [2]: (3.0%)
- % of patients with Grade 5 AE [2]: (0.7%)
- No. of patients with Grade 3 AE [2]: 61
- No. of patients with Grade 4 AE [2]: 9
- No. of patients with Grade 5 AE [2]: 2
- % of patients with SAE [3]: 9.0%
- Deaths, % of patients [3]: 0.7%
- Serious AE confusional state [4]: 0.7%
- Serious AE delirium [4]: 0.7%
- Serious AE dysphagia [4]: 0.7%
- Serious AE pneumonia [4]: 0.7%
- Serious AE respiratory failure [4]: 0.5%
- No. of patients with any treatment-emergent AE (double-blind phase, safety set N=301): 291
- Patients who prematurely discontinued study drug (of 303 randomized to tirasemtiv): 99
